Data: patent US11981640B1, “4,5-bis(4-chlorophenyl)-1-hexyl-2-(3-hydroxy-4-methoxyphenyl)-1H-imidazole as an antimicrobial compound” (KING FAISAL UNIVERSITY, priority 2023, dated 2024)

How the values were obtained:
Format in all cases: cell-based
Conditions in all cases: after 10, 20, 40 and 60 minutes at all dilutions 1:100, 1:200, 1:400, 1:800
[1] = tested on: Staphylococcus aureus; assay: Antimicrobial testing by agar dilution, Staphylococcus aureus
Description: (§1) The antimicrobial properties of the 4,5-bis(4-chlorophenyl)-1-hexyl-2-(3-hydroxy-4-methoxyphenyl)-1H-imidazole (5) were studied by the method of agar dilution. Test solutions of each compound were prepared in concentration of 1% using dimethylformamide as a solvent then they are diluted in physiological solution to obtain the final experimental dilutions 1:100, 1:200, 1:400, 1:800. The effect of these substances were compared with furacillin in a controllable study. The testing microbes used were gram positive bacteria Staphylococcus aureus, gram negative bacteria Escherichia coli, Pseudomonas aeruginosa and Candida albicans fungi were taken. The experiments used for this survey were meat-pentonlu agar (EPA) for cultivation of bacteria and Saburo environment for fungi. Each experiment used 1 ml of test solution on each plate 500 min. Add 2 drops of emulsified with microbes feel. All experimental samples were taken from the agar after 10, 20, 40, 60 minutes in the environment on the basis of Patrk planted. Bacteria were cultivated at a temperature of 37° C. for 1 day and the mushroom was kept in a thermostat for 2 hours at a temperature of 28° C. in the. Then results were checked.

[2] = tested on: Escherichia coli; assay: Antimicrobial testing by agar dilution, Escherichia coli
Description: as §1

[3] = tested on: Pseudomonas aeruginosa; assay: Antimicrobial testing by agar dilution, Pseudomonas aeruginosa
Description: as §1

[4] = tested on: Candida albicans; assay: Antimicrobial testing by agar dilution, Candida albicans
Description: as §1

CCCCCCn1c(-c2ccc(OC)c(O)c2)nc(-c2ccc(Cl)cc2)c1-c1ccc(Cl)cc1 [4,5-bis(4-chlorophenyl)-1-hexyl-2-(3-hydroxy-4-methoxyphenyl)-1H-imidazole]
highest inhibition activity: inhibition activity, Staphylococcus aureus [1] | inhibition activity, Escherichia coli [2] | inhibition activity, Pseudomonas aeruginosa [3] | inhibition activity, Candida albicans [4]
